How the values were obtained:
[1] = Pharmacokinetics assay in SD rats after intragastric administration (plasma LC/MS/MS); type: in vivo; details: po 5.0 mg/kg; for CL/F: read-out: Cl/F—obs (clearance)
Procedure: SD rats were used as test animals. The drug concentration in plasma at different time points was determined by LC/MS/MS method after intragastrical administration of the crystal form 2 of the malate of the present invention and free form. The pharmacokinetic behavior and property of the crystal form 2 of the malate of the present invention and free form were studied and evaluated in SD rats.
Samples: crystal form 2 of the malate of the present invention and free form (the product of Example 1), prepared according to the methods of Examples 14 and 1.
Test animals: 8 healthy SD rats, half male and half female, were divided in two groups, and purchased from SINO-BRITSH SIPPR/BK LAB. ANIMAL LTD., CO, with certificate No.: SOCK (Shanghai) 2008-0016.
Preparation of the test compounds: the test compounds were added to 0.5% CMC-Na to prepare 0.5 mg/mL homogeneous suspensions for oral administration by ultrasound.
Administration: after an overnight fasting, 8 healthy SD rats, half male and half female, were administered the test compounds intragastrically at an administration volume of 10 mL/kg.
After an overnight fasting, 8 healthy SD rats, half male and half female, were administered the test compounds intragastrically. Blood samples (0.1 mL) were taken by jugular vein puncture before administration and at 0.5, 1, 2, 4, 6, 8, 12, and 24 hours after administration, and heparin sodium was used as an anticoagulant. The blood samples were centrifuged for 10 minutes at 3,500 rpm to separate the blood plasma, which was stored at −20° C. The content of the test compound in the plasma of SD rats after intragastric administration was determined by LC/MS/MS method.

[2] = Salt formation study (solubility, hygroscopicity); type: physicochemical; details: in words
From the text: In a preferred embodiment, the salt can be selected from the group consisting of tartrate, hydrochloride, sulfate, methanesulfonate, phosphate, citrate, maleate, fumarate, malate, benzenesulfonate, p-toluenesulfonate and hydrobromide, and most preferably L-tartrate and malate. The L-tartrate of (R)-5-cyano-N-(1-(2-hydroxy-2-(4-methyl-1-oxo-1,3-dihydroisobenzofuran-5-yl)ethyl) piperidin-4-yl)-4-methoxypicolinamide, i.e. the compound of the following formula (I), can be obtained by reacting (R)-5-cyano-N-(1-(2-hydroxy-2-(4-methyl-1-oxo-1,3-dihydroisobenzofuran-5-yl)ethyl) piperidin-4-yl)-4-methoxypicolinamide with L-tartaric acid. The hydrochloride, sulfate, methanesulfonate, phosphate, citrate, maleate, fumarate, malate, benzenesulfonate, p-toluenesulfonate and hydrobromide of (R)-5-cyano-N-(1-(2-hydroxy-2-(4-methyl-1-oxo-1,3-dihydroisobenzofuran-5-yl)ethyl) piperidin-4-yl)-4-methoxypicolinamide can be prepared by using a similar method. […]

[3] = Stability of crystal forms spread flat in air under lighting, heating and high humidity (purity by HPLC); type: physicochemical
Procedure: The sample of crystal form I of the compound of formula (I) prepared in Example 2 and the sample of crystal form II prepared in Example 3 were spread flat in the air respectively to test the stability under conditions of lighting (4500 Lux), heating (40° C., 60° C.), and high humidity (RH 75%, RH 90%). Samplings were carried out on Day 5 and Day 10.

[4] = Special stability study of crystal form I (grinding, heating, tableting; XRPD/DSC); type: physicochemical
From the text: Crystal form I of the compound of formula (I) prepared according to the method of Example 2 was ground, heated and tableted.

[5] = both sexes, rat, plasma, 0.5% CMC-Na suspension

COc1cc(C(=O)NC2CCN(C[C@H](O)c3ccc4c(c3C)COC4=O)CC2)ncc1C#N [Free form, (R)-5-cyano-N-(1-(2-hydroxy-2-(4-methyl-1-oxo-1,3-dihydroisobenzofuran-5-yl)ethyl)piperidin-4-yl)-4-methoxypicolinamide]
CL/F [1, 5]: 9.82 mL/min/kg
AUClast (area under curve 0→t) ([1]; 0.5% CMC-Na suspension): 9283 ng·h/mL
solubility [2]: low

COc1cc(C(=O)NC2CCN(C[C@H](O)c3ccc4c(c3C)COC4=O)CC2)ncc1C#N.O=C(O)CC(O)C(=O)O [Crystal form 2 of the malate, (R)-5-cyano-N-(1-(2-hydroxy-2-(4-methyl-1-oxo-1,3-dihydroisobenzofuran-5-yl)ethyl)piperidin-4-yl)-4-methoxypicolinamide]
CL/F [1, 5]: 6.87 mL/min/kg
half-life ([1]; both sexes, rat, plasma, 0.5% CMC-Na suspension, read-out: T1/2 (half-life) (converted)): 5.24 h
Vd/F ([1]; both sexes, rat, plasma, 0.5% CMC-Na suspension, read-out: Vz/F—obs (apparent distribution volume)): 3.09 L/kg
AUClast (area under curve 0→t) ([1]; 0.5% CMC-Na suspension): 13365 ng·h/mL
clearance compared to the free form ([1]; in words): lower
exposure dose compared to the free form ([1]; in words): higher
half-life compared to the free form ([1]; in words): longer

COc1cc(C(=O)NC2CCN(C[C@H](O)c3ccc4c(c3C)COC4=O)CC2)ncc1C#N [sulfate, (R)-5-cyano-N-(1-(2-hydroxy-2-(4-methyl-1-oxo-1,3-dihydroisobenzofuran-5-yl)ethyl)piperidin-4-yl)-4-methoxypicolinamide]
hygroscopicity ([2]; salt formation study): obviously hygroscopic

COc1cc(C(=O)NC2CCN(C[C@H](O)c3ccc4c(c3C)COC4=O)CC2)ncc1C#N.O=C(O)C(O)C(O)C(=O)O [Crystal form II, L-tartrate of (R)-5-cyano-N-(1-(2-hydroxy-2-(4-methyl-1-oxo-1,3-dihydroisobenzofuran-5-yl)ethyl)piperidin-4-yl)-4-methoxypicolinamide]
purity as detected by HPLC ([3]; 40° C., day 0): 99.47%
purity as detected by HPLC ([3]; 40° C., day 5): 99.38%
purity as detected by HPLC ([3]; 40° C., day 10): 99.15%
purity as detected by HPLC ([3]; 60° C., day 0): 99.47%
purity as detected by HPLC ([3]; 60° C., day 5): 99.22%
purity as detected by HPLC ([3]; 60° C., day 10): 98.87%
purity as detected by HPLC ([3]; Lighting (4500 Lux), day 0): 99.47%
purity as detected by HPLC ([3]; Lighting (4500 Lux), day 5): 99.23%
purity as detected by HPLC ([3]; Lighting (4500 Lux), day 10): 98.62%
purity as detected by HPLC ([3]; RH 75%, day 0): 99.47%
purity as detected by HPLC ([3]; RH 75%, day 5): 99.30%
purity as detected by HPLC ([3]; RH 75%, day 10): 99.10%
purity as detected by HPLC ([3]; RH 90%, day 0): 99.47%
purity as detected by HPLC ([3]; RH 90%, day 5): 99.30%
purity as detected by HPLC ([3]; RH 90%, day 10): 99.10%

COc1cc(C(=O)NC2CCN(C[C@H](O)c3ccc4c(c3C)COC4=O)CC2)ncc1C#N.O=C(O)C(O)C(O)C(=O)O [Crystal form I, L-tartrate of (R)-5-cyano-N-(1-(2-hydroxy-2-(4-methyl-1-oxo-1,3-dihydroisobenzofuran-5-yl)ethyl)piperidin-4-yl)-4-methoxypicolinamide]
purity as detected by HPLC ([3]; 40° C., day 0): 99.67%
purity as detected by HPLC ([3]; 40° C., day 5): 99.52%
purity as detected by HPLC ([3]; 40° C., day 10): 99.45%
purity as detected by HPLC ([3]; 60° C., day 0): 99.67%
purity as detected by HPLC ([3]; 60° C., day 5): 99.55%
purity as detected by HPLC ([3]; 60° C., day 10): 99.39%
purity as detected by HPLC ([3]; Lighting (4500 Lux), day 0): 99.67%
purity as detected by HPLC ([3]; Lighting (4500 Lux), day 5): 99.54%
purity as detected by HPLC ([3]; Lighting (4500 Lux), day 10): 99.34%
purity as detected by HPLC ([3]; RH 75%, day 0): 99.67%
purity as detected by HPLC ([3]; RH 75%, day 5): 99.53%
purity as detected by HPLC ([3]; RH 75%, day 10): 99.39%
purity as detected by HPLC ([3]; RH 90%, day 0): 99.67%
purity as detected by HPLC ([3]; RH 90%, day 5): 99.59%
purity as detected by HPLC ([3]; RH 90%, day 10): 99.43%
stability under conditions of lighting, high temperature and high humidity ([3]; in words): stable
stability compared with crystal form II ([3]; spread flat in air, lighting, high temperature and high humidity, in words): significantly better
DSC peak after treatment ([4]; Grinding treatment for 10 minutes in a mortar under nitrogen): 214.17 °C
DSC peak after treatment ([4]; Heating treatment for 3 hours at 80° C.): 214.40 °C
DSC peak after treatment ([4]; Tableting treatment): 214.44 °C
stability of the crystal form ([4]; grinding, heating / pressure (tableting), in words): stable
